Results taken from ChEMBL document CHEMBL3508140 (2016).

Tests used:
[1] = (§1) Urinary excretion of epirubicinol glucuronide following epirubicin at 50 mg.m-2 dose in cancer patients; assay type: ADME, organism-based, Urine; details: human, in vivo; at 50 mg/m2
[2] = Recovery of epirubicin-glucuronide following intravenous epirubicin at 4 mg.Kg-1 dose in rat; assay type: ADME, organism-based, SD, Plasma; details: in vivo
[3] = (§2) Terminal half-life of epirubicin-glucuronide following intravenous epirubicin at 3 mg.Kg-1 dose in rabbit; assay type: ADME, organism-based, Oryctolagus cuniculus, New Zealand White, Plasma; details: in vivo
[4] = Recovery of epirubicinol-glucuronide following intravenous epirubicin at 4 mg.Kg-1 dose in rat; assay type: ADME, organism-based, SD, Plasma; details: in vivo
[5] = AUC(0-2 h) of epirubicin-glucuronide following intravenous epirubicin at 3 mg.Kg-1 dose in rabbit; assay type: ADME, organism-based, Oryctolagus cuniculus, New Zealand White, Plasma; details: in vivo
[6] = Terminal half-life of epirubicinol-glucuronide following intravenous epirubicin at 3 mg.Kg-1 dose in rabbit; assay type: ADME, organism-based, Oryctolagus cuniculus, New Zealand White, Plasma; details: in vivo
[7] = (§3) Urinary excretion of epirubicin glucuronide following epirubicin at 50 mg.m-2 dose in cancer patients; assay type: ADME, organism-based, Urine; details: human, in vivo; at 50 mg/m2
[8] = Biliary excretion of epirubicin glucuronide following epirubicin at 50 mg.m-2 dose in cancer patients; assay type: ADME, organism-based, Bile; details: human, in vivo; at 50 mg/m2
[9] = Terminal half-life of epirubicinol-glucuronide following intravenous epirubicin at 1 mg.Kg-1 dose in rabbit; assay type: ADME, organism-based, Oryctolagus cuniculus, New Zealand White, Plasma; details: in vivo
[10] = Recovery of epirubicin-glucuronide following intravenous epirubicin at 4 mg.Kg-1 dose in rabbit; assay type: ADME, organism-based, Oryctolagus cuniculus, New Zealand White, Plasma; details: in vivo
[11] = Recovery of epirubicinol-glucuronide following intraperitoneal epirubicin at 4 mg.Kg-1 dose in mouse; assay type: ADME, organism-based, CD-1, Plasma; details: in vivo, ip
[12] = Urinary excretion of epirubicinol glucuronide following epirubicin at 60-150 mg.m-2 dose in cancer patients; assay type: ADME, organism-based, Urine; details: human, in vivo
[13] = Recovery of epirubicinol-glucuronide following intraperitoneal epirubicin at 4 mg.Kg-1 dose in hamster; assay type: ADME, organism-based, Cricetulus griseus, Plasma; details: chinese hamster, in vivo, ip
[14] = AUC(0-2 h) of epirubicinol-glucuronide following intravenous epirubicin at 1 mg.Kg-1 dose in rabbit; assay type: ADME, organism-based, Oryctolagus cuniculus, New Zealand White, Plasma; details: in vivo
[15] = as §3; assay type: ADME, organism-based, Urine; details: human, in vivo; at 50 mg/m2; remark: listed apart in the source
[16] = Biliary excretion of epirubicinol glucuronide following epirubicin at 50 mg.m-2 dose in cancer patients; assay type: ADME, organism-based, Bile; details: human, in vivo; at 50 mg/m2
[17] = Recovery of epirubicinol-glucuronide following intravenous epirubicin at 4 mg.Kg-1 dose in rabbit; assay type: ADME, organism-based, Oryctolagus cuniculus, New Zealand White, Plasma; details: in vivo
[18] = AUC(0-2 h) of epirubicin-glucuronide following intravenous epirubicin at 1 mg.Kg-1 dose in rabbit; assay type: ADME, organism-based, Oryctolagus cuniculus, New Zealand White, Plasma; details: in vivo
[19] = AUC(0-2 h) of epirubicinol-glucuronide following intravenous epirubicin at 3 mg.Kg-1 dose in rabbit; assay type: ADME, organism-based, Oryctolagus cuniculus, New Zealand White, Plasma; details: in vivo
[20] = as §1; assay type: ADME, organism-based, Urine; details: human, in vivo; at 50 mg/m2; remark: listed apart in the source
[21] = (§4) Terminal half-life of epirubicin-glucuronide following intravenous epirubicin at 1 mg.Kg-1 dose in rabbit; assay type: ADME, organism-based, Oryctolagus cuniculus, New Zealand White, Plasma; details: in vivo
[22] = Recovery of epirubicin-glucuronide following intravenous epirubicin at 1.5 mg.Kg-1 dose in man; assay type: ADME, organism-based, Plasma; details: human, in vivo
[23] = Urinary excretion of epirubicin glucuronide following epirubicin at 60-150 mg.m-2 dose in cancer patients; assay type: ADME, organism-based, Urine; details: human, in vivo
[24] = Urinary excretion of epirubicin glucuronide following epirubicin at 60 mg.m-2 dose in cancer patients; assay type: ADME, organism-based, Urine; details: human, in vivo; at 60 mg/m2
[25] = as §4; assay type: ADME, organism-based, Oryctolagus cuniculus, New Zealand White, Plasma; details: in vivo; remark: listed apart in the source
[26] = Urinary excretion of epirubicinol glucuronide following epirubicin at 75-90 mg.m-2 dose in cancer patients; assay type: ADME, organism-based, Urine; details: human, in vivo
[27] = as §2; assay type: ADME, organism-based, Oryctolagus cuniculus, New Zealand White, Plasma; details: in vivo; remark: listed apart in the source
[28] = Recovery of epirubicin-glucuronide following intraperitoneal epirubicin at 4 mg.Kg-1 dose in mouse; assay type: ADME, organism-based, CD-1, Plasma; details: in vivo, ip
[29] = Urinary excretion of epirubicinol glucuronide following epirubicin at 60 mg.m-2 dose in cancer patients; assay type: ADME, organism-based, Urine; details: human, in vivo; at 60 mg/m2
[30] = Urinary excretion of epirubicin glucuronide following epirubicin at 75-90 mg.m-2 dose in cancer patients; assay type: ADME, organism-based, Urine; details: human, in vivo
[31] = Recovery of epirubicin-glucuronide following intraperitoneal epirubicin at 4 mg.Kg-1 dose in hamster; assay type: ADME, organism-based, Cricetulus griseus, Plasma; details: chinese hamster, in vivo, ip
[32] = Recovery of epirubicinol-glucuronide following intravenous epirubicin at 1.5 mg.Kg-1 dose in man; assay type: ADME, organism-based, Plasma; details: human, in vivo

Compound recovery [1]: 0.4%
Compound recovery [2]: 0 10^-9M
t1/2 [3]: 29.4 min
Compound recovery [4]: 0 10^-9M
AUC [5]: 15.83 ng·h/mL
t1/2 [6]: 23.4 min
Compound recovery [7]: 4.6%
Compound recovery [8]: 4.6%
t1/2 [9]: 12.6 min
Compound recovery [10]: 1.7 10^-9M
Compound recovery [11]: 0 10^-9M
Compound recovery [12]: 0.3%
Compound recovery [13]: 0 10^-9M
AUC [14]: 1.47 ng·h/mL
Compound recovery [15]: 3.3%
Compound recovery [16]: 1.9%
Compound recovery [17]: 0.5 10^-9M
AUC [18]: 7.64 ng·h/mL
AUC [19]: 4.01 ng·h/mL
Compound recovery [20]: 1.7%
t1/2 [21]: 61.2 min
Compound recovery [22]: 460 10^-9M
Compound recovery [23]: 1.3%
Compound recovery [24]: 3.2%
t1/2 [25]: 9 min
Compound recovery [26]: 0.8%
t1/2 [27]: OUTCOME = Not calculated
Compound recovery [28]: 0 10^-9M
Compound recovery [29]: 0.8%
Compound recovery [30]: 3.2%
Compound recovery [31]: 0 10^-9M
Compound recovery [32]: 90 10^-9M
SMILES: COc1cccc2c1C(=O)c1c(O)c3c(c(O)c1C2=O)C[C@@](O)(C(=O)CO)C[C@@H]3O[C@H]1C[C@H](N)[C@@H](O[C@@H]2O[C@H](C(=O)O)[C@@H](O)[C@H](O)[C@H]2O)[C@H](C)O1
